Entries after “also recorded” stand apart in the source; their conditions may differ.
Columns and labels:
TRPM8 FK 1045,1046 AG [1] = molecular target: T1, TRPM8 FK 1045,1046 AG (Homo sapiens, UniProt Q7Z2W7, F1045A/K1046G); experiment: Fluo-3 intracellular Ca2+ assay, SH-SY5Y cells expressing TRPM8 FK 1045,1046 AG mutant; assay type: cell-based
T1 construct: expressed in transfected cells
Source text: (§1) Human TRPM8 cDNA was cloned by RT–PCR from human prostate cancer cell line LNCaP (from the American Type Culture Collection) by ligation into pcDNA3.1neo and its DNA sequence validated (L.R. Sadofsky, unpublished work). Normal TRPM8 cDNA was mutated using synthetic oligonucleotides (from Eurofins, MWG, Operon) to amplify full-length plasmid DNA with Pfu DNA polymerase (Thermo Scientific). Amplified DNA was used to transform competent Esherichia coli (Agilent) and individual plasmid clones were screened by diagnostic restriction enzyme digestion-agarose gel electrophoresis. […]
(§2) Cell suspension for assay was added to 1.9 ml isotonic assay buffer (no BSA) in a 10×10×45 mm polystyrene cuvette (Sarstedt Ltd) containing a small magnetic flea for continuous stirring (~50 rpm), to bring the final volume to 2 ml, and placed within the photomultipler light box. […] Real-time fluorescence intensity measurements were collected and data were exported to Microsoft Excel for analysis. […]
(§3) Data from the measurement of Ca^2+ transients (each treatment including a 2 μM A23187 Ca^2+ ionophore control) were used to generate fluorescence intensity traces in Microsoft Excel. RFU (relative fluorescence unit) values for baseline and agonist-induced peak Ca^2+ fluo-3-fluorescence were determined by the manual analysis of graphs. […]

SH-SY5Y TRPA1 R797T = molecular target: T2, SH-SY5Y TRPA1 R797T (Homo sapiens, UniProt O75762, R797T); experiment: Fluo-3 intracellular Ca2+ assay, TRPA1-transfected SH-SY5Y cells that lost response to agonist; assay type: cell-based; settings: pre-treatment followed by AITC
T2 construct: expressed in transfected cells
T2 sequence (O75762 whole entry R797T): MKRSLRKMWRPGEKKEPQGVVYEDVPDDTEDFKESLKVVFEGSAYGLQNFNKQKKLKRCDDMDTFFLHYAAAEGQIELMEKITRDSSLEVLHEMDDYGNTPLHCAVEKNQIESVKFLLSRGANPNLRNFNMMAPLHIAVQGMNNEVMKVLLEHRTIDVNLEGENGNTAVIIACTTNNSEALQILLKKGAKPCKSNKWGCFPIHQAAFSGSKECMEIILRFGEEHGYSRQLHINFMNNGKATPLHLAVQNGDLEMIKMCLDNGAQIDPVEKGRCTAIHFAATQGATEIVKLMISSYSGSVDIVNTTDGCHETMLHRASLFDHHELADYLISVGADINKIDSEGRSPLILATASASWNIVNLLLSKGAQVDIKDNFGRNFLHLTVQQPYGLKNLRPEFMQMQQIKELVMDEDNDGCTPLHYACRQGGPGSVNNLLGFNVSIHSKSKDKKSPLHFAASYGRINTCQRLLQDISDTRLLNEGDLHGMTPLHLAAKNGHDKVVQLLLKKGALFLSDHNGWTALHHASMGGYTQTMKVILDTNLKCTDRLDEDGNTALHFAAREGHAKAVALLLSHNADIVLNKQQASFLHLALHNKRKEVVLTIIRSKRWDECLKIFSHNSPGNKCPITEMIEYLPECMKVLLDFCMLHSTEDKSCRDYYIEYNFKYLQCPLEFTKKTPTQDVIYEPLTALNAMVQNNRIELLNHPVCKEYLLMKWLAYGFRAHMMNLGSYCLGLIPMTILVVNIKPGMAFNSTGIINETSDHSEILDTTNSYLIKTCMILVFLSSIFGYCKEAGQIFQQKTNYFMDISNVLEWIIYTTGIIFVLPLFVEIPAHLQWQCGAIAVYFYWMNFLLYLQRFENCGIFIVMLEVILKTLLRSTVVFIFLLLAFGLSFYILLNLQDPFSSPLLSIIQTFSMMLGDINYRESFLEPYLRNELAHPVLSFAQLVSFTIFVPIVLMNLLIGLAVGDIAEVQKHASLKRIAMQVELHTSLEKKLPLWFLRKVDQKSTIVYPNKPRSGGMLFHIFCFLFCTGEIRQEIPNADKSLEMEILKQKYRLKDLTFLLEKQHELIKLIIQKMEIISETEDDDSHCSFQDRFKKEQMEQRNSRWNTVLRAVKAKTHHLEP
Experimental: (§4) When cells reached approximately 80% confluence they were harvested for assays measuring Ca^2+ transients in response to TRP channel activation. […] A sample was taken to calculate cell yield using a hemocytometer and the cells were pelleted by centrifugation at 1500 rpm for 4 min.
Cell suspension for assay was added to 1.9 ml isotonic assay buffer (no BSA) in a 10×10×45 mm polystyrene cuvette (Sarstedt Ltd) containing a small magnetic flea for continuous stirring (~50 rpm), to bring the final volume to 2 ml, and placed within the photomultipler light box. […] Slit apertures were adjusted to enable maximum sensitivity while maintaining low noise. TRP channel agonist was administered by injection into the cuvette using a 1–20 μl pipette fitted with a narrow, extended-reach disposable tip. […] Real-time fluorescence intensity measurements were collected and data were exported to Microsoft Excel for analysis. […]
as §3, with “graphs. Agonist dose-dependent changes in peak RFU were expressed as ΔRFU relative to baseline and relative to maximum RFU elicited by A23187.” for “graphs.”

human TRPM8 = molecular target: T3, human TRPM8 (Homo sapiens, UniProt Q7Z2W7); experiment: Fluo-3 intracellular Ca2+ assay, HEK-293 cells expressing normal human TRPM8; assay type: cell-based
T3 construct: expressed in transfected cells
T3 sequence (Q7Z2W7 whole entry): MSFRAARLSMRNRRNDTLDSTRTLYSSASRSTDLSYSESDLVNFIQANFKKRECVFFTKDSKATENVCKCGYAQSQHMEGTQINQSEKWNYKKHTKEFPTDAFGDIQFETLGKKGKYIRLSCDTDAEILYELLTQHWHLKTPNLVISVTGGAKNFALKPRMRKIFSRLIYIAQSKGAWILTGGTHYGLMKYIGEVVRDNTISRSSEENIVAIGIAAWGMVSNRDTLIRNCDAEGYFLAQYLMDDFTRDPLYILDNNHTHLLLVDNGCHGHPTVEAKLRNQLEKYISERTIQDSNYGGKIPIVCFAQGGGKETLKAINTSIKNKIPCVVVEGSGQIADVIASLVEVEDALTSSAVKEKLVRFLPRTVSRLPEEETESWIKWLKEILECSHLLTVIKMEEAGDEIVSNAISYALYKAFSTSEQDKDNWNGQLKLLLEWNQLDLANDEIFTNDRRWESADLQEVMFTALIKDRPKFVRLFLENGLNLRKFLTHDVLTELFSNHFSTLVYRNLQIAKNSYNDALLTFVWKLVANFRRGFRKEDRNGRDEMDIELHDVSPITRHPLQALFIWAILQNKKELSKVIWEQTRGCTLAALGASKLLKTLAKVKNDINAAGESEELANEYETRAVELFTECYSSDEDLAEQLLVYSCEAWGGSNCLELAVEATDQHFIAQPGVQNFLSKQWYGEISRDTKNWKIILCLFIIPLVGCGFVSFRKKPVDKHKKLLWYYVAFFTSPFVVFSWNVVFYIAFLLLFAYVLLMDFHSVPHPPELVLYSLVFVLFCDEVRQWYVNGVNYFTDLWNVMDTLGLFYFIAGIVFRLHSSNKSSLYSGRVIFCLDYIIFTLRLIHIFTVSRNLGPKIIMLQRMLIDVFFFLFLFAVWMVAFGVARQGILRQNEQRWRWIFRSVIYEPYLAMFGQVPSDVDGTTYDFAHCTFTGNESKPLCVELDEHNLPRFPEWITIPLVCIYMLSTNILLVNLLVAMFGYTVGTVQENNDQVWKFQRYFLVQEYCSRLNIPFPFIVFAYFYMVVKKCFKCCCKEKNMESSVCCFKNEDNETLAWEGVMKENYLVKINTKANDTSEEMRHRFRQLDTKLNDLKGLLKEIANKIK
Experimental: as §4
Cell suspension for assay was added to 1.9 ml isotonic assay buffer (no BSA) in a 10×10×45 mm polystyrene cuvette (Sarstedt Ltd) containing a small magnetic flea for continuous stirring (~50 rpm), to bring the final volume to 2 ml, and placed within the photomultipler light box. […] Slit apertures were adjusted to enable maximum sensitivity while maintaining low noise. TRP channel agonist was administered by injection into the cuvette using a 1–20 μl pipette fitted with a narrow, extended-reach disposable tip. Antagonists were pre-added to cuvettes where appropriate. Real-time fluorescence intensity measurements were collected and data were exported to Microsoft Excel for analysis. Experimental treatments were performed in triplicate on three separate occasions to facilitate statistical analyses of reproducibility.
Data from the measurement of Ca^2+ transients (each treatment including a 2 μM A23187 Ca^2+ ionophore control) were used to generate fluorescence intensity traces in Microsoft Excel. RFU (relative fluorescence unit) values for baseline and agonist-induced peak Ca^2+ fluo-3-fluorescence were determined by the manual analysis of graphs. Agonist dose-dependent changes in peak RFU were expressed as ΔRFU relative to baseline and relative to maximum RFU elicited by A23187. […] This enabled estimation of excitatory concentration EC50 for agonists and inhibitory concentration IC50 values where pre-incubation with antagonist was employed. Comparisons between data generated in triplicate within individual experiments and between experiments performed on […] were analysed using Student's t test and one-way ANOVA with post-hoc analysis of group means using Tukey's multiple comparison test.

TRPM8 SV 762,763 EL = molecular target: T4, TRPM8 SV 762,763 EL (Homo sapiens, UniProt Q7Z2W7, S762E/V763L); experiment: Fluo-3 intracellular Ca2+ assay, HEK-293 cells expressing TRPM8 SV 762,763 EL mutant; assay type: cell-based; settings: HEK293 TRPM8 SV / EL; mean±S.E.M., n=3; read-out: EC50 for WS 12 (peak intracellular Ca2+ fluorescence)
T4 construct: expressed in transfected cells
T4 sequence (Q7Z2W7 whole entry S762E/V763L): as the sequence (Q7Z2W7 whole entry) above, with S762E, V763L counted along it
Source text: as §1, §2, §3

TRPM8 FK 1045,1046 AG [2] = molecular target: T1, TRPM8 FK 1045,1046 AG; experiment: Fluo-3 intracellular Ca2+ assay, HEK-293 cells expressing TRPM8 FK 1045,1046 AG mutant; assay type: cell-based; settings: HEK293 TRPM8 FK / AG; mean±S.E.M., n=3; read-out: EC50 for WS 12 (peak intracellular Ca2+ fluorescence)
Source text: as §1, §2, §3

[3] = tested on: HEK-293 cells transfected with empty pcDNA3.1neo vector; experiment: Fluo-3 intracellular Ca2+ assay, control HEK-293 cells with empty pcDNA3.1neo vector; assay type: cell-based, human; settings: HEK-293 empty pcDNA3.1neo vector; 40 nM WS 12 (Figure S1a)
Experimental: Following a brief wash with PBS, cells were detached from each T75 flask by soaking with 2 ml Hepes-buffered saline EDTA (10 mM Hepes pH7.4, 155 mM NaCl, 1.7 mM EDTA) for several minutes and were harvested by addition of 10 ml PBS with gentle agitation and transfer to a 25 ml universal. A sample was taken to calculate cell yield using a hemocytometer and the cells were pelleted by centrifugation at 1500 rpm for 4 min. The pellet was resuspended in isotonic buffer (145 mM NaCl, 5 mM KCl, 1 mM MgCl2, 1 mM CaCl2, 10 mM Hepes pH7.4, 10 mM glucose, a variable content of probenecid (0, 0.13, 0.26, 0.52, 1.0, 2.0 or 2.5 mM) or 0.18 mM sulfinpyrazone, with optional 10 mg/ml BSA (all from Sigma-Aldrich) at a density of 5×10^6/ml and mixed with 2.5 or 5.0 μl Fluo-3AM (Invitrogen) from a 2.5 μg/μl stock solution prepared in (DMSO, Sigma-Aldrich). Cells were incubated in a 25 ml universal in the dark at room temperature with gentle rotary mixing (50 rpm) for 30–45 min and then washed by addition of 18 ml PBS followed by centrifugation and resuspension in isotonic buffer without BSA at 5×10^6 cells/ml. […] Real-time fluorescence intensity measurements were collected and data were exported to Microsoft Excel for analysis. […]

TRPA1 797R = molecular target: T5, TRPA1 797R (Homo sapiens, UniProt O75762); experiment: Fluo-3 intracellular Ca2+ assay, HEK-293 cells expressing TRPA1 797R (reference sequence); assay type: cell-based
T5 construct: expressed in transfected cells
T5 sequence (O75762 whole entry): as the sequence (O75762 whole entry R797T) above, with T797R counted along it
Experimental: When cells reached approximately 80% confluence they were harvested for assays measuring Ca^2+ transients in response to TRP channel activation. Following a brief wash with PBS, cells were detached from each T75 flask by soaking with 2 ml Hepes-buffered saline EDTA (10 mM Hepes pH7.4, 155 mM NaCl, 1.7 mM EDTA) for several minutes and were harvested by addition of 10 ml PBS with gentle agitation and transfer to a 25 ml universal. A sample was taken to calculate cell yield using a hemocytometer and the cells were pelleted by centrifugation at 1500 rpm for 4 min. […]

TRPA1 804N = molecular target: T6, TRPA1 804N (Homo sapiens, UniProt O75762, S804N); experiment: Fluo-3 intracellular Ca2+ assay, HEK-293 cells expressing TRPA1 804N SNP variant; assay type: cell-based; settings: HEK-293 TRPA1 804N; mean ±standard deviation, n=4; read-out: EC50 cinnamaldehyde
T6 construct: expressed in transfected cells
T6 sequence (O75762 whole entry S804N): as the sequence (O75762 whole entry R797T) above, with T797R, S804N counted along it
Source text: (§5) Human TRPA1 cDNA in pcDNA3.1neo [41] was mutated to create SNP variants using quick change PCR with appropriate primer pairs: R797T forward 5′ […] TT and reverse 5′ […], S804N forward 5′ […] ATGTTC and reverse 5′ […]. Likewise, the experimental mutant S873E, in ICL-2 (intracellular loop-2), was created using PCR primers: forward 5′ […] […] and reverse 5′ […]. For C-terminal extension, TRPA1cDNA was modified by excision of the 3′ section of the coding region (BamHI–XbaI digestion) and replacement with a BamHI–XbaI digested PCR amplified section containing codons for ten histidine residues (His)10 prior to the translation stop codon using T4 DNA ligase (Promega). PCR primers were: sense 5′ TTTAC […] CATT 3′ and antisense 5′ […] […] TGCCTT 3′. […]
(§6) Aliquots of cell suspension (usually 100 μl) were used for measurement of intracellular Ca^2+ transients using a PTI (Photon Technology International) 814 photomultiplier detection system interfaced with a desktop computer (PTI Inc.). […] The cuvette was illuminated using light at a wavelength of 506 nm (slit width 8 nm) and monitored using fluorescence detection at 526 nm (slit width 8 nm) coupled to FeliX GX software (PTI Inc). […] Real-time fluorescence intensity measurements were collected and data were exported to Microsoft Excel for analysis. […]

TRPA1 797T = molecular target: T7, TRPA1 797T (Homo sapiens, UniProt O75762, R797T); experiment: Fluo-3 intracellular Ca2+ assay, HEK-293 cells expressing TRPA1 797T SNP variant; assay type: cell-based; settings: HEK-293 TRPA1 797T; mean ±standard deviation, n=4; read-out: EC50 cinnamaldehyde
T7 construct: expressed in transfected cells
T7 sequence (O75762 whole entry R797T): as the sequence (O75762 whole entry R797T) above
Source text: as §5, §6

TRPA1-(His)10 = molecular target: T8, TRPA1-(His)10 (Homo sapiens, UniProt O75762); experiment: Fluo-3 intracellular Ca2+ assay, HEK-293 cells expressing TRPA1-(His)10; assay type: cell-based; settings: HEK-293 TRPA1-(His)10; mean ±standard deviation, n=4; read-out: EC50 cinnamaldehyde
T8 construct: expressed in transfected cells
T8 sequence (O75762 with tags, fused parts or gaps limits assumed): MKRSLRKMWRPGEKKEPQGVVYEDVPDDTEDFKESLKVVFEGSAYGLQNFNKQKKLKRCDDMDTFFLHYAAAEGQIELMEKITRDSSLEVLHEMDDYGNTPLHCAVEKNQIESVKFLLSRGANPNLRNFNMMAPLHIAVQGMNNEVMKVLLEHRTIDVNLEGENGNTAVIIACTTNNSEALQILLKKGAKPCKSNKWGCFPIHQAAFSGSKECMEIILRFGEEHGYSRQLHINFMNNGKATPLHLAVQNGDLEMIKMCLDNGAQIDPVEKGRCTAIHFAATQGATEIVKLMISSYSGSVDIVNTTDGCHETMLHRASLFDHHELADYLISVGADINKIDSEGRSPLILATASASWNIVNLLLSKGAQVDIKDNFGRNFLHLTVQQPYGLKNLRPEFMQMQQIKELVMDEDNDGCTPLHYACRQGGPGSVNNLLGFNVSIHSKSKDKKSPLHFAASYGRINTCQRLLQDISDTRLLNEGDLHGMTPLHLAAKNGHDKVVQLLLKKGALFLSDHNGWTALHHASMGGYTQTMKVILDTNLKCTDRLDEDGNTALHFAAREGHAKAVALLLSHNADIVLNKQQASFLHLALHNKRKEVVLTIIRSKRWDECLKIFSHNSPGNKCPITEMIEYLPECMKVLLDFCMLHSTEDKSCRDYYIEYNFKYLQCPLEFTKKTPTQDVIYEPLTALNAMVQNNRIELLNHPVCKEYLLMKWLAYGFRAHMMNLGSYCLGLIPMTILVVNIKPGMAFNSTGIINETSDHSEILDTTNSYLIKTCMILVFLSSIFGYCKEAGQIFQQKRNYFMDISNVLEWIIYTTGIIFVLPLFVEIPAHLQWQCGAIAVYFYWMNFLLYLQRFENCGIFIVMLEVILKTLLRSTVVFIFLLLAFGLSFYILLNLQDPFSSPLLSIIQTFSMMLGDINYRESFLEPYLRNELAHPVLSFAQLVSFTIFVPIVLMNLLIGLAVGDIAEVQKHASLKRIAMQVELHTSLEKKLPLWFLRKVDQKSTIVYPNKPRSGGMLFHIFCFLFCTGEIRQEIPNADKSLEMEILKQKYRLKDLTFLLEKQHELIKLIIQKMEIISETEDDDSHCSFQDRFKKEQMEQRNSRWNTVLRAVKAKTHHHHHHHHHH
Source text: as §5, §6

T1 sequence (Q7Z2W7 whole entry F1045A/K1046G): as the sequence (Q7Z2W7 whole entry) above, with F1045A, K1046G counted along it

Nc1ncnc2c1cnn2-c1ccccc1 [PP3, 4-amino-7-phenylpyrazol[3,4-d]pyrimidine]
Effect of pre-treatment on responses to TRPM8 agonist (TRPM8 FK 1045,1046 AG [1]; 150 nM WS 12): did not affect responses; also recorded: did not inhibit responses
Recovery of responses to TRPA1 agonists after pre-treatment (SH-SY5Y TRPA1 R797T): did not facilitate recovery

COc1ccc(NC(=O)[C@@H]2CC(C)CC[C@H]2C(C)C)cc1 (stereo partly drawn) [WS 12, (1R,2S)-N-(4-methoxyphenyl)-5-methyl-2-(1-methylethyl)cyclohexanecarbo-xamide]
EC50 (human TRPM8; HEK293 TRPM8, mean±S.E.M., n=3, read-out: EC50 for WS 12 (peak intracellular Ca2+ fluorescence)): 0.128 ± 0.022 µM
EC50 (TRPM8 SV 762,763 EL): 0.178 ± 0.022 µM
EC50 (TRPM8 FK 1045,1046 AG [2]): 0.194 ± 0.05 µM
EC50 (TRPM8 FK 1045,1046 AG [1]; mean±S.E.M., n=3, read-out: EC50 for WS 12 (peak intracellular Ca2+ fluorescence)): 0.187 ± 0.037 µM
Intracellular Ca2+ transients in empty-vector control cells [3]: did not exhibit intracellular Ca^2+ transients

O=C/C=C/c1ccccc1 [cinnamaldehyde]
EC50 (TRPA1 797R): 15 ± 5 µM
EC50 (TRPA1 804N): 11 ± 3 µM
EC50 (TRPA1 797T): 3 ± 1 µM
EC50 (TRPA1-(His)10): 8 ± 2 µM

CC1CCC(C(C)C)C(O)C1 (stereo not drawn) [menthol]
Intracellular Ca2+ transients in empty-vector control cells [3]: did not exhibit intracellular Ca^2+ transients

CCCN(CCC)S(=O)(=O)c1ccc(C(=O)O)cc1 [probenecid]
Effect of low probenecid concentration on Ca2+ assay results (human TRPM8; 0.13 mM probenecid, relative to data derived using sulfinpyrazone, TRPM8 and TRPA1 assays): did not affect
Effect of probenecid on TRPM8-induced intracellular Ca2+ response (human TRPM8; probenecid above 1 mM, up to 2.5 mM, 40 nM WS 12): inhibited; also recorded: suppressed the response to WS 12
Effect of probenecid on TRPA1-induced intracellular Ca2+ response (TRPA1 797R; probenecid above 1 mM, up to 2.5 mM, 60 μM cinnamaldehyde): suppressed; also recorded: inhibited
